Experimental data published in patent US20250340563A1, “FUSED PYRIDAZINE DERIVATIVES AS NLRP3 INHIBITORS” (Takeda Pharmaceutical Company Limited, priority 2022, published 2025).

Assays:
[1] = test system: NF-κB pathway; assay: TNF-α assay in IFN-γ-differentiated, LPS-stimulated THP-1 cells (ELISA); assay type: cell-based; conditions: Homo sapiens, 50 ng/mL LPS, 3 hours
Method: Monocytic THP-1 cells (ATCC: TIB-202) are maintained in accordance with the provider's instructions in RPMI media (Life Technologies, Cat #A10491-01); RPMI is supplemented with 10% heat inactivated fetal bovine serum (Hyclone Cat #SH30396.03). The cells are differentiated into macrophages by the addition of 25 ng/mL IFN-γ for 24 hours at 37° C./5% CO2. Media is exchanged with fresh media with no FBS. The cells are plated at 40,000 cells per well in 384-well flat-bottom cell culture plates (Costar 3764) containing compounds (added in 1:1000) in a 1:3.16 serial dilution series in DMSO and are incubated for 30 minutes at 37° C./5% CO2. The NF-κB pathway is activated with the addition of 50 ng/mL LPS and the cells are incubated for 3 hours at 37° C./5% CO2. At the end of the incubation period, supernatant (40 μL) is removed, and […] are monitored using an ELISA (Human TNF-α ELISA, R&D systems, Cat #DY210) according to the manufacturer's instructions.
The IC50 values are calculated from a plot of percentage of inhibition versus the inhibitor concentration by a logistics curve fit according to: Y=[Bottom+(Top−Bottom)]/(1+10^[(Log IC50−X)·Hill Slope], where Y is the % inhibition at the inhibitor concentration, X, “Bottom” is the lowest inhibition value, i.e. 0%, “Top” is the maximum inhibition value, i.e. 100%, and the “Hill Slope” describes the slope of the sigmoidal curve between the “Bottom” and “Top” values. The curve fitting was conducted with internally developed software.

[2] = molecular target: NLRP3 inflammasome (Homo sapiens, UniProt Q96P20); assay: IL-1β assay in IFN-γ-differentiated, LPS-primed, ATP-activated THP-1 cells (ELISA); assay type: cell-based; conditions: 50 ng/mL LPS priming, 2.5 mM ATP activation, 2 hours
Sequence of NLRP3 inflammasome (Q96P20 whole entry): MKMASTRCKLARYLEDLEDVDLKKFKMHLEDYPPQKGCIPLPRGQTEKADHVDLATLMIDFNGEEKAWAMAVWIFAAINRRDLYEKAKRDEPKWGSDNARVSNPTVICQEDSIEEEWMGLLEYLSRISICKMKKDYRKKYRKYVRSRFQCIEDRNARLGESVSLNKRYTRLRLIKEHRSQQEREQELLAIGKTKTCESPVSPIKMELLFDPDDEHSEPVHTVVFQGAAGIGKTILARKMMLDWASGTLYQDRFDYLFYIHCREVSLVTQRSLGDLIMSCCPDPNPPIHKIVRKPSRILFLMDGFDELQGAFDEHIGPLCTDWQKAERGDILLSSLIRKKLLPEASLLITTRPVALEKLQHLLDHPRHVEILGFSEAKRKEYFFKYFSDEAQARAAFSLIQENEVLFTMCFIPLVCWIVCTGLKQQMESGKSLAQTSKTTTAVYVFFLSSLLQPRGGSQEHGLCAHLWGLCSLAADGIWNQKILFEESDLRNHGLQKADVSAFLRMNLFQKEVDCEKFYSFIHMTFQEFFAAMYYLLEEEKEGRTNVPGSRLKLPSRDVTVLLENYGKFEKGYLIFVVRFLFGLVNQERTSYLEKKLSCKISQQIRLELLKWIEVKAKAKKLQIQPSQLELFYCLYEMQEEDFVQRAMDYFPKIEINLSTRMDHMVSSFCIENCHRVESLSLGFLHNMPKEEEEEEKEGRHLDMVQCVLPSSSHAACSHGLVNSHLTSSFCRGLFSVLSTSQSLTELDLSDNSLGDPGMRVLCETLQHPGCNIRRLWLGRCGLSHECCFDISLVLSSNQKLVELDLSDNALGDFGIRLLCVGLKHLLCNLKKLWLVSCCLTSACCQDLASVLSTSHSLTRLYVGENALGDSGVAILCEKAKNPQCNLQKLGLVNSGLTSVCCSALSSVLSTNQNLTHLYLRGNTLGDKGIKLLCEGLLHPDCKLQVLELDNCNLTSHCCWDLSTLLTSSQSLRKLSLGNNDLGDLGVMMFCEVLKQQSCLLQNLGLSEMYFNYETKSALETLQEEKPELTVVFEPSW
Outline: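 Supernatant IL-1β is quantified by ELISA after 2 h of 2.5 mM ATP stimulation at 37 °C, with IC50 taken from a four-parameter fit of % inhibition. Before this, THP-1 macrophages (25 ng/mL IFN-γ, 24 h) were LPS-primed (50 ng/mL, 24 h, no FBS) and exposed to serially diluted compound for 30 min.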

Row | SMILES | IC50 [1] [nM] | IC50 [2] [nM]
1 | COc1ccc(-c2nnc(N[C@H]3C[C@@](C)(O)C3)c3ccccc23)cc1 [Example 124, cis-3-((4-(4-methoxyphenyl)phthalazin-1-yl)amino)-1-methylcyclobutan-1-ol] | > 30000 | 1290
2 | OC12CCC(Nc3nnc(-c4ccc(Cl)cc4)c4ccccc34)(CC1)C2 [Example 127, 4-((4-(4-chlorophenyl)phthalazin-1-yl)amino)bicyclo[2.2.1]heptan-1-ol] | > 30000 | 228
3 | CN1CCC[C@@H](Nc2nnc(-c3ccc(Cl)cc3)c3ccccc23)C1 [Example 139, (R)-4-(4-chlorophenyl)-N-(1-methylpiperidin-3-yl)phthalazin-1-amine] | > 30000 | 31
4 | FCCN1CCCC(Nc2nnc(-c3ccc(Cl)cc3)c3ccccc23)C1 (stereo not drawn) [Example 140, 4-(4-chlorophenyl)-N-(1-(2-fluoroethyl)piperidin-3-yl)phthalazin-1-amine] | > 30000 | 75
5 | Clc1ccc(-c2nnc(NC3CCCN(C4CC4)C3)c3ccccc23)cc1 (stereo not drawn) [Example 144, 4-(4-chlorophenyl)-N-(1-cyclopropylpiperidin-3-yl)phthalazin-1-amine] | > 30000 | 43
6 | CN1CC2CC2(Nc2nnc(-c3ccc(Cl)cc3)c3ccccc23)C1 (stereo not drawn) [Example 152, 4-(4-chlorophenyl)-N-(3-methyl-3-azabicyclo[3.1.0]hexan-1-yl)phthalazin-1-amine] | > 30000 | 490
7 | Clc1ccc(-c2nnc(Nc3ccccc3)c3ccccc23)cc1 [Example 153, 4-(4-chlorophenyl)-N-phenylphthalazin-1-amine] | > 30000 | 2260
8 | Clc1ccc(-c2nnc(NC3CCCN(Cc4ccccc4)C3)c3ccccc23)cc1 (stereo not drawn) [Example 155, N-(1-benzylpiperidin-3-yl)-4-(4-chlorophenyl)phthalazin-1-amine] | 23400 | 66
9 | CCN1CCCC(Nc2nnc(-c3ccc(Cl)cc3)c3ccccc23)C1 (stereo not drawn) [Example 162, 4-(4-chlorophenyl)-N-(1-ethylpiperidin-3-yl)phthalazin-1-amine] | > 30000 | 18
10 | COc1ccc(-c2nnc(N[C@@H]3CCCN(C4(C)CC4)C3)c3cnccc23)cc1 [Example 168, (R)-1-(4-methoxyphenyl)-N-(1-(1-methylcyclopropyl)piperidin-3-yl)pyrido[3,4-d]pyridazin-4-amine] | > 30000 | 5
11 | COc1ccc(-c2nnc(N[C@@H]3CCCN(C4CC4)C3)c3cnccc23)cc1 [Example 169, (R)—N-(1-cyclopropylpiperidin-3-yl)-1-(4-methoxyphenyl)pyrido[3,4-d]pyridazin-4-amine] | > 30000 | 7
12 | CCN1CCCC(Nc2nnc(-c3ccc(OC)cc3)c3ccccc23)C1 (stereo not drawn) [Example 171, N-(1-ethylpiperidin-3-yl)-4-(4-methoxyphenyl)phthalazin-1-amine] | > 30000 | 68
13 | COc1ccc(-c2nnc(N[C@@H]3C[C@@H](F)CN(C)C3)c3cnccc23)cc1 [Example 174, N-((3R,5R)-5-fluoro-1-methylpiperidin-3-yl)-1-(4-methoxyphenyl)pyrido[3,4-d]pyridazin-4-amine] | > 30000 | 159
14 | CN1C[C@H](F)C[C@@H](Nc2nnc(-c3ccc(Cl)cc3F)c3ccccc23)C1 [Example 176, 4-(4-chloro-2-fluorophenyl)-N-((3R,5R)-5-fluoro-1-methylpiperidin-3-yl)phthalazin-1-amine] | > 30000 | 37
15 | COc1ccc(-c2nnc(N[C@@H]3C[C@@H](F)CN(C)C3)c3ccccc23)cc1 [Example 177, N-((3R,5R)-5-fluoro-1-methylpiperidin-3-yl)-4-(4-methoxyphenyl)phthalazin-1-amine] | > 30000 | 53
16 | COc1ccc(-c2nnc(N[C@@H]3C[C@@H](F)CN(C)C3)c3ccccc23)c(F)c1 [Example 178, N-((3R,5R)-5-fluoro-1-methylpiperidin-3-yl)-4-(2-fluoro-4-methoxyphenyl)phthalazin-1-amine] | > 30000 | 81
17 | CN1C[C@H](F)C[C@@H](Nc2nnc(-c3ccc(Cl)cc3F)c3ccncc23)C1 [Example 184, 1-(4-chloro-2-fluorophenyl)-N-((3R,5R)-5-fluoro-1-methylpiperidin-3-yl)pyrido[3,4-d]pyridazin-4-amine] | > 30000 | 152
18 | CN1C[C@@H](F)C[C@@H](Nc2nnc(-c3ccc(Cl)cc3)c3ccccc23)C1 [Example 185, 4-(4-chlorophenyl)-N-((3R,5S)-5-fluoro-1-methylpiperidin-3-yl)phthalazin-1-amine] | > 30000 | 311
19 | Cc1ccc(-c2nnc(N[C@@H]3C[C@@H](F)CN(C)C3)c3c(C)nccc23)c(O)c1 [Example 186, 2-(4-(((3R,5R)-5-fluoro-1-methylpiperidin-3-yl)amino)-5-methylpyrido[3,4-d]pyridazin-1-yl)-5-methylphenol] | > 30000 | 5
20 | CN1C[C@H](F)C[C@@H](Nc2nnc(-c3ccc(Cl)cc3)c3ccncc23)C1 [Example 189, 1-(4-chlorophenyl)-N-((3R,5R)-5-fluoro-1-methylpiperidin-3-yl)pyrido[3,4-d]pyridazin-4-amine] | > 30000 | 110
21 | F[C@H]1CNC[C@H](Nc2nnc(-c3ccc(Cl)cc3)c3ccccc23)C1 [Example 190, 4-(4-chlorophenyl)-N-((3R,5R)-5-fluoropiperidin-3-yl)phthalazin-1-amine] | 7590 | 648
22 | CN1C[C@H](F)C[C@@H](Nc2nnc(-c3ccc(Cl)cc3)c3ccccc23)C1 [Example 192, 4-(4-chlorophenyl)-N-((3R,5R)-5-fluoro-1-methylpiperidin-3-yl)phthalazin-1-amine] | > 30000 | 60
23 | CCN1C[C@H](F)C[C@@H](Nc2nnc(-c3ccc(OC)cc3)c3ccccc23)C1 [Example 193, N-((3R,5R)-1-ethyl-5-fluoropiperidin-3-yl)-4-(4-methoxyphenyl)phthalazin-1-amine] | > 30000 | 22
24 | COc1ccc(-c2nnc(N[C@@H]3C[C@@H](F)CN(CC4CC4)C3)c3ccccc23)cc1 [Example 194, N-((3R,5R)-1-(cyclopropylmethyl)-5-fluoropiperidin-3-yl)-4-(4-methoxyphenyl)phthalazin-1-amine] | > 30000 | 35
25 | CCN1C[C@H](F)C[C@@H](Nc2nnc(-c3ccc(OC)cc3)c3ccncc23)C1 [Example 195, N-((3R,5R)-1-ethyl-5-fluoropiperidin-3-yl)-1-(4-methoxyphenyl)pyrido[3,4-d]pyridazin-4-amine] | > 30000 | 113
26 | COc1ccc(-c2nnc(N[C@@H]3C[C@@H](F)CN(C(C)C)C3)c3ccccc23)cc1 [Example 196, N-((3R,5R)-5-fluoro-1-isopropylpiperidin-3-yl)-4-(4-methoxyphenyl)phthalazin-1-amine] | > 30000 | 12
27 | CN1C[C@H](F)C[C@@H](Nc2nnc(-c3ccc(Cl)cc3O)c3c2CCOC3)C1 [Example 200, 5-chloro-2-(1-(((3R,5R)-5-fluoro-1-methylpiperidin-3-yl)amino)-7,8-dihydro-5H-pyrano[3,4-d]pyridazin-4-yl)phenol] | > 30000 | 3
